Measurements published in ChEMBL document CHEMBL6127124, “Structure-Activity Relationships and Discovery of (S)-5-(tert-Butyl)-11-(difluoromethoxy)-9-methoxy-2-oxo-1,2,5,6-tetrahydropyrido[2',1':2,3]imidazo[4,5-h]quinoline-3-carboxylic Acid (AB-161), a Novel Orally Available and Liver-Centric HBV RNA Destabilizer” (J Med Chem, 2024).

What was measured:
Hepatitis B virus [1] = experiment: Antiviral activity against HBV genotype D in immuno-competent C57BL/6 mouse model of chronic HBV assessed as log10 reduction in HBsAg production at 10 mg/kg, po qd for 7 days measured 24 hrs post-last dose by EIA relative to control; assay type: functional; settings: time 8 day
[2] = Drug concentration in Sprague-Dawley rat liver at 10 mg/kg, po measured for 24 hrs by LC-MS/MS analysis; assay type: ADME, organism-based; settings: read-out: Ct
Hepatitis B virus [3] = experiment: Antiviral activity against HBV infected in immuno-competent mouse model assessed as log10 reduction serum HBsAg; assay type: functional
[4] = Free AUC (0 to 24 hrs) in Beagle dog at 15 mg/kg, po qd measured after 91 days; assay type: ADME, organism-based, Canis lupus familiaris; settings: in vivo, 2184 h, time 91 day
CYP2D6 = CYP2D6 (Homo sapiens, UniProt P10635); experiment: Inhibition of CYP2D6 in human liver microsomes using dextromethorphan as substrate preincubated for 30 min followed by NADPH addition measured after 12 mins by LC-MS/MS analysis; assay type: ADME, Microsome; settings: human, liver microsomes, probe dextromethorphan
RNA = experiment: Destabilization of HBV RNA assessed as decrease in HBsAg production by cell-based assay; settings: Hepatitis B virus
[5] = Total AUC (0 to 24 hrs) in Beagle dog at 15 mg/kg, po qd measured after 91 days; assay type: ADME, organism-based, Canis lupus familiaris; settings: in vivo, time 91 day
[6] = Selectivity ratio of drug concentration in liver in Sprague-Dawley rat at 10 mg/kg, po measured for 24 hrs to EC90 for antiviral activity against HBV infected in human HepG2.2.15 cells assessed as reduction in HBsAg level; assay type: ADME, organism-based; settings: in vivo
[7] = Free Cmax in Beagle dog at 5 mg/kg, po qd measured after 91 days; assay type: ADME, organism-based, Canis lupus familiaris; settings: in vivo, 2184 h, time 91 day
[8] = Oral bioavailability in Sprague-Dawley rat at 10 mg/kg measured for 24 hrs by LC-MS/MS analysis; assay type: ADME, organism-based; settings: in vivo
CYP3A4 = CYP3A4 (Homo sapiens, UniProt P08684); experiment: Inhibition of CYP3A4 in human liver microsomes using testosterone as substrate preincubated for 30 min followed by NADPH addition measured after 12 mins by LC-MS/MS analysis; assay type: ADME, Microsome; settings: human, liver microsomes, probe testosterone
[9] = Toxicity in Beagle dog assessed as splayed limbs at 60 mg/kg, po qd measured after 34 days; assay type: organism-based, Canis lupus familiaris; settings: in vivo, 816 h, time 34 day
[10] = Toxicity in Beagle dog assessed as uncoordinated movements at 15 mg/kg, po qd measured after 14 days; assay type: organism-based, Canis lupus familiaris; settings: in vivo, 336 h, time 14 day
[11] = Drug concentration in Sprague-Dawley rat plasma at 10 mg/kg, po measured for 24 hrs by LC-MS/MS analysis; assay type: ADME, organism-based; settings: read-out: Ct
[12] = Total AUC (0 to 24 hrs) in Beagle dog at 60 mg/kg, po qd measured after 91 days; assay type: ADME, organism-based, Canis lupus familiaris; settings: in vivo, time 91 day
[13] = Free Cmax in Beagle dog at 15 mg/kg, po qd measured after 91 days; assay type: ADME, organism-based, Canis lupus familiaris; settings: in vivo, 2184 h, time 91 day
[14] = Free AUC (0 to 24 hrs) in Beagle dog at 45 mg/kg, po qd measured after 91 days; assay type: ADME, organism-based, Canis lupus familiaris; settings: in vivo, 2184 h, time 91 day
[15] = AUC (0 to 24 hrs) in Sprague-Dawley rat at 10 mg/kg, po measured for 24 hrs by LC-MS/MS analysis; assay type: ADME, organism-based; settings: in vivo
[16] = Ratio of drug concentration in liver to plasma of Sprague-Dawley rat at 10 mg/kg, po measured for 24 hrs by LC-MS/MS analysis; assay type: ADME, organism-based; settings: liver and plasma
Hepatitis B virus [17] = experiment: In vivo destabilization of HBV RNA in immuno-competent mouse model of chronic HBV assessed as log10 reduction in HBV DNA; assay type: functional
[18] = Total AUC (0 to 24 hrs) in Beagle dog at 5 mg/kg, po qd measured after 91 days; assay type: ADME, organism-based, Canis lupus familiaris; settings: in vivo, time 91 day
[19] = Total Cmax in Beagle dog at 45 mg/kg, po qd measured after 91 days; assay type: ADME, organism-based, Canis lupus familiaris; settings: in vivo, time 91 day
[20] = Total Cmax in Beagle dog at 60 mg/kg, po qd measured after 91 days; assay type: ADME, organism-based, Canis lupus familiaris; settings: in vivo, time 91 day
[21] = Free Cmax in Beagle dog at 60 mg/kg, po qd measured after 91 days; assay type: ADME, organism-based, Canis lupus familiaris; settings: in vivo, 2184 h, time 91 day
Hepatitis B virus [22] = experiment: Antiviral activity against HBV infected in human primary hepatocytes assessed as reduction in HBeAg production pre-infected cells with virus followed by inoculum removal and subsequent addition of compounds with replenishment on days 4,7,9,11 and 14 post-infection measured after 16 days; assay type: functional, organism-based; settings: Hepatocyte, 384 h
[23] = Drug concentration in Sprague-Dawley rat liver at 5 mg/kg, po measured for 24 hrs by LC-MS/MS analysis; assay type: ADME, organism-based; settings: read-out: Ct
[24] = Free AUC (0 to 24 hrs) in Beagle dog at 15 mg/kg, po qd measured after 60 days; assay type: ADME, organism-based, Canis lupus familiaris; settings: in vivo, 1440 h, time 60 day
[25] = target: Voltage-gated inwardly rectifying potassium channel KCNH2 (Homo sapiens, UniProt Q12809); experiment: Inhibition of hERG; assay type: toxicity
[26] = Total Cmax in Beagle dog at 15 mg/kg, po qd measured after 60 days; assay type: ADME, organism-based, Canis lupus familiaris; settings: in vivo, time 60 day
[27] = Toxicity in female Beagle dog assessed as change in body weight at 15 to 45 mg/kg, po qd measured for 60 days; assay type: organism-based, Canis lupus familiaris; settings: in vivo, 1440 h, dose 15-45 mg/kg, time 60 day
[28] = Total AUC (0 to 24 hrs) in Beagle dog at 15 mg/kg, po qd measured after 60 days; assay type: ADME, organism-based, Canis lupus familiaris; settings: in vivo, time 60 day
Cytochrome P450 3A4 = Cytochrome P450 3A4 (Homo sapiens, UniProt P08684); experiment: Inhibition of CYP3A4 in human liver microsomes using midazolam as substrate preincubated for 30 min followed by NADPH addition measured after 12 mins by LC-MS/MS analysis; assay type: ADME, Microsome
[29] = Free Cmax in Beagle dog at 45 mg/kg, po qd measured after 60 days; assay type: ADME, organism-based, Canis lupus familiaris; settings: in vivo, 1440 h, time 60 day
Hepatitis B virus [30] = experiment: Antiviral activity against HBV infected in human primary hepatocytes assessed as reduction in HBV DNA production pre-infected cells with virus followed by inoculum removal and subsequent addition of compounds with replenishment on days 4,7,9,11 and 14 post-infection measured after 16 days; assay type: functional, organism-based; settings: Hepatocyte, 384 h
[31] = Free AUC (0 to 24 hrs) in Beagle dog at 45 mg/kg, po qd measured after 60 days; assay type: ADME, organism-based, Canis lupus familiaris; settings: in vivo, 1440 h, time 60 day
[32] = Toxicity in male Beagle dog assessed as fold decrease in total protein level at 15 mg/kg, po qd measured for 60 days; assay type: organism-based, Canis lupus familiaris; set-up: scale not given: the % may be the effect or the level left; settings: in vivo, 1440 h, time 60 day
Hepatitis B virus [33] = experiment: Antiviral activity against HBV infected in human primary hepatocytes assessed as reduction in HBsAg production pre-infected cells with virus followed by inoculum removal and subsequent addition of compounds with replenishment on days 4,7,9,11 and 14 post-infection measured after 16 days; assay type: functional, organism-based; settings: Hepatocyte, 384 h
[34] = Total AUC (0 to 24 hrs) in Beagle dog at 45 mg/kg, po qd measured after 60 days; assay type: ADME, organism-based, Canis lupus familiaris; settings: in vivo, time 60 day
Hepatitis B virus [35] = experiment: Antiviral activity against HBV genotype D in immuno-competent C57BL/6 mouse model of chronic HBV assessed as log10 reduction in serum HBsAg production at 0.3 mg/kg, po qd for 14 days measured 24 hrs post-last dose by EIA relative to control; assay type: functional; settings: time 15 day
[36] = Ratio of drug concentration in liver to plasma of Sprague-Dawley rat at 5 mg/kg, po measured for 24 hrs by LC-MS/MS analysis; assay type: ADME, organism-based; settings: liver and plasma

Chain of Cytochrome P450 3A4 (P08684 whole entry): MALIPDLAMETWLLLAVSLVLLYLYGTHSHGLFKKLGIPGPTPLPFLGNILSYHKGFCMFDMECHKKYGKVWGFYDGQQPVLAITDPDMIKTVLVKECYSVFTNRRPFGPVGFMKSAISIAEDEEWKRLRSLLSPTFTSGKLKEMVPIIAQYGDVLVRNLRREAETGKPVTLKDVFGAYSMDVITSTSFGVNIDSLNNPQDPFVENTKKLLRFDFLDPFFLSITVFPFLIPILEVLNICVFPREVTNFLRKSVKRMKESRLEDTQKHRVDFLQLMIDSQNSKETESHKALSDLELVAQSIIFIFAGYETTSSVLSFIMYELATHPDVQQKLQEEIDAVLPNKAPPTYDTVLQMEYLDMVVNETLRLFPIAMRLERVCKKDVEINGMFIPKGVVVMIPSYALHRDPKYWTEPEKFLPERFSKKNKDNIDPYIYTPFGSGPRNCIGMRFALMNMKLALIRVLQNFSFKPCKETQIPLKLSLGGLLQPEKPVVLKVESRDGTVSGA
Chain of CYP3A4 (P08684 whole entry): as above
Chain of CYP2D6 (P10635 whole entry): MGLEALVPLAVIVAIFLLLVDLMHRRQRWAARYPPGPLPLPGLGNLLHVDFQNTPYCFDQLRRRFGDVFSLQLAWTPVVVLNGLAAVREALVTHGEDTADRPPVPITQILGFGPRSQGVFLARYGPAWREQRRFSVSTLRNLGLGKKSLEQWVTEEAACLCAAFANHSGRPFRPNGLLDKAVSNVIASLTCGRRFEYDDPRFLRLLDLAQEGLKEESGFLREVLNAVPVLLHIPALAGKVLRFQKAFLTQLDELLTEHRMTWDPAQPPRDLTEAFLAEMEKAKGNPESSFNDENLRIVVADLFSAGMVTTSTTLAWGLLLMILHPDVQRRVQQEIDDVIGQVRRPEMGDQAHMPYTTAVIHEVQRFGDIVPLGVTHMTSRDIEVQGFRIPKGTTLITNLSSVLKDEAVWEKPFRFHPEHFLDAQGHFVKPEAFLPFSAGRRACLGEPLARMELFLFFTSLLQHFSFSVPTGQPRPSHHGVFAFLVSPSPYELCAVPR
Chain of Voltage-gated inwardly rectifying potassium channel KCNH2 (Q12809 whole entry): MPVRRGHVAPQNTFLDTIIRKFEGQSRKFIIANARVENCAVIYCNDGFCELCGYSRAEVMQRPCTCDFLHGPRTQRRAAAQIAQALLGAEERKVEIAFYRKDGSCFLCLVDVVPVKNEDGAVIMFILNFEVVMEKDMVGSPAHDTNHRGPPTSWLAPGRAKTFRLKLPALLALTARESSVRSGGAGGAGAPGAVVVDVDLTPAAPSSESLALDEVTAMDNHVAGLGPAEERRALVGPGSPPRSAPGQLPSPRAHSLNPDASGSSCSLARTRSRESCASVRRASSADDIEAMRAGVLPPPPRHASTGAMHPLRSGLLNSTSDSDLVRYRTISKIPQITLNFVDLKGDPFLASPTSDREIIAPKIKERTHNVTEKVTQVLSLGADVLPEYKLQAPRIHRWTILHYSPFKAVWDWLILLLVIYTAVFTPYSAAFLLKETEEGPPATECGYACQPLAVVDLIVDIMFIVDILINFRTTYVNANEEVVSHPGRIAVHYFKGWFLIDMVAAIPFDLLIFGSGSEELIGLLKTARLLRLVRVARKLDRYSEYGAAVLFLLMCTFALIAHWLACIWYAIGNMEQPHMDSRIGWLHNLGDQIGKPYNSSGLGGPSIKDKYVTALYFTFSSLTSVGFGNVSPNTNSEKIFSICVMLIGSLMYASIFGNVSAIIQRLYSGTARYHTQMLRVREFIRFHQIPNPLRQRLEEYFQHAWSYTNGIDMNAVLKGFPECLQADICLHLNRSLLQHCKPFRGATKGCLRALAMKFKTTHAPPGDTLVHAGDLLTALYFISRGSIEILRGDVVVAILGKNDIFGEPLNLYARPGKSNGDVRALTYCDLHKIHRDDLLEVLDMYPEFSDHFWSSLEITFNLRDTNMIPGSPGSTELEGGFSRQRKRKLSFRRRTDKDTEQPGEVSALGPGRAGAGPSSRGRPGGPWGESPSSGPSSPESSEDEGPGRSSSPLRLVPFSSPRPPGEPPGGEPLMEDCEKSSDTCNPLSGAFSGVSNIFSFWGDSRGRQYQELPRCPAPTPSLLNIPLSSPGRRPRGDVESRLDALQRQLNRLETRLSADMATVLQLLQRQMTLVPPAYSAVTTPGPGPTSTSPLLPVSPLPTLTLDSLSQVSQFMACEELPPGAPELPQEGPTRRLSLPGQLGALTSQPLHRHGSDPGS

With COCCCOc1cc2c(nc1OC)-c1cc(=O)c(C(=O)O)cn1[C@H](C(C)C)C2 as the compound, how does the “log(activity)” value (Hepatitis B virus [1]) read?
Its value is 0.98.

And the concentration at 24 h [2]?
The concentration at 24 h was 93 ng/g.

What about the “log(activity)” value (Hepatitis B virus [3]) of the same compound?
Its value is “<=0.94”.

And the fAUC [4]?
The fAUC was 11400 ng·h/mL.

What about the IC50 at 12 min (CYP2D6) of the same compound?
The IC50 at 12 min was over 25000 nM.

What about the EC50 (RNA) of the same compound?
The EC50 was 1.4 nM.

What about the AUC at 2184 h [5] of the same compound?
Its AUC at 2184 h is 30600 ng·h/mL.

What about the Ratio [6] of the same compound?
The Ratio was 5.

And the fCmax [7]?
The fCmax was 1740 ng/mL.

What about the bioavailability [8] of the same compound?
Its bioavailability is 80%.

And the IC50 at 12 min (CYP3A4)?
The IC50 at 12 min was over 25000 nM.

And the Activity [9]?
Its Activity is “Toxic”.

What about the Activity [10] of the same compound?
Its Activity is “Toxic”.

And the concentration at 24 h [11]?
Its concentration at 24 h is 28.2 ng/g.

What about the AUC at 2184 h [12] of the same compound?
The AUC at 2184 h was 128000 ng·h/mL.

And the fCmax [13]?
Its fCmax is 4270 ng/mL.

What about the fAUC [14] of the same compound?
The fAUC was 35300 ng·h/mL.

And the AUC(0-t) at 24 h [15]?
The AUC(0-t) at 24 h was 13900 ng·h/mL.

What about the Kp at 24 h [16] of the same compound?
The Kp at 24 h was 3.3.

And the “log(activity)” value (Hepatitis B virus [17])?
The value was “<=0.94”.

What about the AUC at 2184 h [18] of the same compound?
Its AUC at 2184 h is 10500 ng·h/mL.

What about the Cmax [19] of the same compound?
The Cmax was 27800 ng/mL.

What about the Cmax [20] of the same compound?
The Cmax was 18700 ng/mL.

And the fCmax [21]?
Its fCmax is 6940 ng/mL.

For COc1cc(OC(F)F)c2nc3c(n2c1)C[C@@H](C(C)(C)C)c1cc(C(=O)O)c(=O)[nH]c1-3, which EC50 (Hepatitis B virus [22]) is on record?
The EC50 was 8.5 nM.

What about the concentration at 24 h [23] of the same compound?
The concentration at 24 h was 13900 ng/g.

And the fAUC [24]?
Its fAUC is 1830 ng·h/mL.

And the IC50 [25]?
Its IC50 is over 30000 nM.

What about the Cmax [26] of the same compound?
Its Cmax is 13900 ng/mL.

What about the Activity [27] of the same compound?
The Activity was “Non-Toxic”.

And the AUC at 1440 h [28]?
The AUC at 1440 h was 3900 ng·h/mL.

What about the IC50 (Cytochrome P450 3A4) of the same compound?
Its IC50 is over 25000 nM.

What about the fCmax [29] of the same compound?
The fCmax was 834 ng/mL.

And the EC50 (Hepatitis B virus [30])?
Its EC50 is 8.5 nM.

And the fAUC [31]?
Its fAUC is 3100 ng·h/mL.

What about the Activity [32] of the same compound?
The Activity was under 20%.

What about the EC50 (Hepatitis B virus [33]) of the same compound?
The EC50 was 8.5 nM.

What about the AUC at 1440 h [34] of the same compound?
The AUC at 1440 h was 65900 ng·h/mL.

And the “log(activity)” value (Hepatitis B virus [35])?
Its value is 0.13.

What does the source list for CC(C)(C)[C@@H]1Cc2c(nc3c(C(F)(F)F)cc(C4CC4)cn23)-c2[nH]c(=O)c(C(=O)O)cc21?
concentration at 24 h [23]: 6140 ng/g; IC50 (Cytochrome P450 3A4): > 25000 nM; log(activity) (Hepatitis B virus [35]): 0.35; Kp at 24 h [36]: 920
